Among the data in PubChem BioAssay AID602191 (Broad Institute, 2012) are activation (HDL uptake increase) and AC40 values, retold here.

SMILES strings stand for the structures. Activity calls are given as the source filed them.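 The calls were made as follows: active = fitted curve reaches 40% activation at a concentration no higher than the top valid tested dose; inconclusive = flat fit between 30% and 70% activation, or poor fit; inactive = uptake decrease, flat fit within 30% of zero, the rest.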 Residues, ends and D or L forms follow the SMILES beside them. Some results are limits rather than exact numbers.

The assay deals with Scavenger receptor class B member 1 (Mus musculus) (UniProt Q61009). As to the kind of experiment: activators of SR-BI-mediated HDL uptake, dose response, cell-based, ldlA[mSR-BI] CHO, DiI fluorescence, cherry-pick (AID 602191).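 As to AC40: potency of activators raising HDL uptake.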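 As to activation (HDL uptake increase): 0% = median of DMSO wells and 100% = twice the DMSO signal.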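 As to all read-outs here: cell fluorescence from internalized DiI-labeled HDL after washing.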 Particulars: ldlA[mSR-BI] CHO cells, 3 h; for activation (HDL uptake increase): at 35 µM (top of the series).
Chain of Scavenger receptor class B member 1 (Mus musculus) (Q61009 whole entry, looked up): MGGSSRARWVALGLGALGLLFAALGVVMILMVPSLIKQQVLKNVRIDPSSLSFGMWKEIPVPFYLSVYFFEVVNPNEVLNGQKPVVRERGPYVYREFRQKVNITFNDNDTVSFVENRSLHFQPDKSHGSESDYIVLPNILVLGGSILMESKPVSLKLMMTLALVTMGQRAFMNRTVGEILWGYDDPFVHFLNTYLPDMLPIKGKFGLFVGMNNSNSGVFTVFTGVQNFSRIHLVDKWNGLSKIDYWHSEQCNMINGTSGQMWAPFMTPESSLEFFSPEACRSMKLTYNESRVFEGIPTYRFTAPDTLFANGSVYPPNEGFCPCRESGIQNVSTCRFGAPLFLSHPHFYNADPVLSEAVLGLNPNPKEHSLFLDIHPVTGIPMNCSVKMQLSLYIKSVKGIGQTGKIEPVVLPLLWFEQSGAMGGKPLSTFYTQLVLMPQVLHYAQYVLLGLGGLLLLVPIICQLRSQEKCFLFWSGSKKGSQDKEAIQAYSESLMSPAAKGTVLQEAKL

Consider `C=CC[C@@H](CC(=O)N[C@@H](CO)Cc1ccccc1)C(=O)N[C@H](COC(=O)[C@@H](CC=C)CC(=O)OC(C)(C)C)Cc1c[nH]c2ccccc12`, for which the activation (HDL uptake increase) is 65.3% (inactive).
Same read-out and setting: the result for `Cc1ccc(C(=O)N/C(=C/c2ccccc2)C(=O)NC(Cc2ccccc2)C(=O)O)cc1` (stereo not given) reads 8.63% (inactive).
For the compound `COc1cccc(/C=N/n2c(SC)nnc2-c2ccccc2)c1O`, the activation (HDL uptake increase) is -1.1% (inactive).
With `O=c1[nH]c(C2CCN(S(=O)(=O)c3ccc4c(c3)OCCO4)CC2)nc2c1nnn2Cc1ccc(F)cc1`, the activation (HDL uptake increase) is -4.95% (inactive).
For the compound `CC(C)C[C@H](NC(=O)c1nc[nH]c1C(=O)NC1CCN(C(=O)OC(C)(C)C)CC1)C(=O)OC(C)(C)C`, the activation (HDL uptake increase) was -3.21% (inactive).
With `CC(C)NC(=O)C1(O)c2ccccc2NC(=O)N1c1ccc(Cl)c(Cl)c1` (stereo not given), the AC40 was > 35 µM (inactive).
As for `C=CC[C@@H](CC(=O)N[C@@H](CO)Cc1ccccc1)C(=O)N[C@@H](COC(=O)[C@@H](CC=C)Cc1ccc(F)cc1)Cc1c[nH]c2ccccc12`, the activation (HDL uptake increase) is -7.03% (inactive).
On the same count and under the same terms, under `Cc1ccc(C(=O)NCCCN2CCOCC2)cc1S(=O)(=O)N1CCCCC1` stands 9.53% (inactive).
In the case of `COc1ccccc1OCCc1nnc(N)s1`, the AC40 was > 35 µM (inactive).
Take `O=C1C(=O)N(CNc2cccnc2)c2ccccc21`: the activation (HDL uptake increase) is -7.96% (inactive).
Still for that read-out and setting: the result for `Cc1ccc(S(=O)(=O)N2CCC(=O)N(CCOCc3cccc(F)c3)CC2)cc1` reads 5.46% (inactive).
On to `CC(C)(C)NC(=O)C[C@H]1C[C@H](C(=O)N2CCOCC2)[C@@]2(CCC3CCCC3)c3[nH]c4ccc(Cl)cc4c3CCN2C1=O`, for which the AC40 was > 35 µM (inactive).
As for `COc1ccc(NC(=O)CN(C)C(=O)C2(c3ccccc3)CCCC2)cc1`, the activation (HDL uptake increase) is -15.3% (inactive).
The same measure, in the same setting: under `O=S(=O)(c1ccccc1)N1CCN(Cc2c(O)ccc3ccccc23)CC1` stands -12% (inactive).
The same measure, in the same setting: the result for `CC(C)OC(=O)C1C(=O)CC(C)(O)C(C(=O)OC(C)C)C1c1cccc([N+](=O)[O-])c1` (stereo not given) reads -0.289% (inactive); that for `CC(=O)Nc1ccc(OC(=O)c2ccco2)cc1`, -1.69% (inactive).
Same read-out and setting: under `CC(C)(C)OC(=O)NCCCC[C@H](NC(=O)c1nc[nH]c1C(=O)NC(c1ccccc1)c1ccccc1)C(=O)OC(C)(C)C` stands -9.52% (inactive); under `CCCN1CCC(NC(=O)C2CCCCC2C(=O)O)CC1` (stereo not given), -8.02% (inactive).
With `O=C(OCc1ccccc1)c1cccc(-c2nnc(-c3ccccc3)o2)c1`, the activation (HDL uptake increase) is -15.9% (inactive).
As to `CCCCN(C(=O)c1cc2c(s1)CCC2)c1c(N)n(CC(C)C)c(=O)[nH]c1=O`, the activation (HDL uptake increase) is -6.82% (inactive).
Still for that read-out and setting: the result for `C=CCC[C@@H](Cc1ccc(F)cc1)C(=O)OC[C@@H](Cc1c[nH]c2ccccc12)NC(=O)[C@@H](CC=C)CC(=O)N[C@@H](CO)Cc1ccccc1` reads 47.8% (inactive).
With `O=C(C[C@H]1C[C@H](C(=O)N2CCCCC2)[C@@]2(CCc3ccccc3)c3[nH]c4ccc(Cl)cc4c3CCN2C1=O)NCc1cccc(C(F)(F)F)c1`, the AC40 is > 35 µM (inactive).
In the case of `Cc1cccc(C)c1NC(=O)N1C2CCCC1CC(NC(=O)C(C)(C)C)C2` (stereo not given), the activation (HDL uptake increase) was 5.39% (inactive).
Take `C[C@@H](C(=O)OCC(=O)c1ccccc1)N1C(=O)C2CCCCC2C1=O` (stereo not given in full): the activation (HDL uptake increase) was -7.88% (inactive).
Same read-out and setting: under `CCc1cccc(N(C(=O)c2csnn2)C(C(=O)NC2CCCC2)c2cccnc2)c1` (stereo not given) stands 6.32% (inactive); under `Cc1c(C(=O)NCCN2CCOC2=O)oc2c(F)cccc12`, -0.811% (inactive).
The same measure, in the same setting: the result for `Cc1cccc(C)c1OCc1cc(C(=O)N2CCC(c3ccccc3)CC2)no1` reads 2.24% (inactive); that for `O=C(NCc1ccccc1)C1=C[C@H](c2coc3ccccc3c2=O)C[C@H](OCc2ccc(CO)cc2)O1`, -1.3% (inactive); that for `O=C(COC(=O)C1CCN(/C=C/C(=O)C(F)(F)F)CC1)Nc1cccc(F)c1`, -7.38% (inactive).
Still for that read-out and setting: under `O=C(CCN1C(=O)/C(=C\C=C\c2ccccc2)SC1=S)Nc1ccc(C(=O)O)cc1` stands -14.1% (inactive); under `C[C@H](NC(=O)c1nc[nH]c1C(=O)NCc1ccccc1)c1ccccc1`, -1.54% (inactive).
For `O=C(CNC(=O)c1ccc(Cl)cc1Cl)OCC(=O)N1CCCC1`, the activation (HDL uptake increase) is -11.8% (inactive).
Still for that read-out and setting: the result for `O=C(NC1CCCCCC1)C1c2ccccc2C(=O)N1CCCN1CCOCC1` (stereo not given) reads -1.53% (inactive).
Still for that read-out and setting: the result for `COc1ccc(C(=O)NCc2nnc(SCC(=O)NCc3ccc(F)cc3)o2)cc1` reads -16% (inactive); that for `CN1CCN(CCC(=O)N2c3ccccc3Sc3ccc(Cl)cc32)CC1`, -3.2% (inactive); that for `CC(C)CN(C(=O)CCNC(=O)c1ccccc1Cl)C1CCS(=O)(=O)C1` (stereo not given), 0.946% (inactive).
With `C[C@@H]1CN([C@@H](C)CO)C(=O)Cc2cc(NC(=O)Nc3ccc(C(F)(F)F)cc3)ccc2O[C@@H]1CN(C)S(=O)(=O)c1ccc(Cl)cc1`, the AC40 was 31.1 µM.
Turning to `COc1ccc(N2C(=O)CCC(C(=O)N3CCOCC3)C2c2ccc(F)cc2)cc1` (stereo not given), the activation (HDL uptake increase) was 5.04% (inactive).
For `CNC[C@H]1Oc2c(NS(=O)(=O)c3ccc(OC)cc3)cccc2C(=O)N([C@H](C)CO)C[C@H]1C`, the activation (HDL uptake increase) was 9.97% (inactive).
The same measure, in the same setting: under `COc1ccc(N2CCN(c3oc(-c4ccco4)nc3C#N)CC2)cc1` stands 1.24% (inactive); under `CCOc1ccc(CNC(=O)CCS(=O)(=O)c2ccc3c(c2)oc(=O)n3C)cc1`, 8.83% (inactive); under `O=S(=O)(Nc1ccccc1OC(F)F)c1ccc(S(=O)(=O)N2CCCC2)cc1`, -11.8% (inactive).
Same read-out and setting: the result for `O=S(=O)(c1ccccc1F)N1CCN(Cc2cc3c(cc2Br)OCCO3)CC1` reads -16.4% (inactive); that for `O=C(C1CCC(=O)N(C2CCCC2)C1)N1CCN(Cc2cccc(Cl)c2)CC1` (stereo not given), -5.02% (inactive); that for `O=C(CNC(=O)c1ccco1)NCCCc1ccccc1`, -5.97% (inactive).
Still for that read-out and setting: under `COc1ccccc1NC(=O)CCN1CCCCCC1` stands -12.4% (inactive); under `Cc1ccc(-n2ncc3c(=O)n(CC(=O)N4CCN(c5ccccc5F)CC4)cnc32)cc1C`, -20.1% (inactive).
For `CCS(=O)(=O)c1nc(S(=O)(=O)c2ccc(C)cc2)c(N2CCC(C)CC2)s1`, the activation (HDL uptake increase) is -8.15% (inactive).
Still for that read-out and setting: under `CC1(C)NC(=O)N(CC(=O)N2CCN(S(=O)(=O)c3ccccc3C(F)(F)F)CC2)C1=O` stands -6.43% (inactive); under `COC(=O)c1oc2ccc(Br)cc2c1NC(=O)CN1CCN(C)CC1`, 4.26% (inactive); under `NC(=O)C1CCN(C(=O)c2ccc(NS(=O)(=O)c3ccc(F)c(F)c3)cc2)CC1`, -2.55% (inactive).
On the same count and under the same terms, under `O=C(CSc1nnnn1-c1ccccc1)N1CCNC1=O` stands -10.4% (inactive).
Still for that read-out and setting: the result for `O=C(O)C1CCN(Cc2cnn(-c3ccccc3)c2-n2cccc2)CC1` reads 6.93% (inactive); that for `Cc1nn(-c2ccccc2)nc1CNC(=O)C(C)Cc1ccccc1` (stereo not given), -12.5% (inactive); that for `N#Cc1ccc(OCCOCCNC2CCCC2)cc1`, 13.4% (inactive).
Regarding `CCN1CCN(c2ccc(S(=O)(=O)N3CCOCC3)cc2NC(=O)C2CCC(C(C)(C)C)CC2)CC1` (stereo not given), the AC40 was > 35 µM (inactive).
For `O=C(C1=C[C@@H](c2ccc(Br)cc2)C[C@@H](OCc2ccc(CO)cc2)O1)N1CCN(Cc2ccccc2)CC1`, the activation (HDL uptake increase) was 0.848% (inactive).
For `CC[C@H](C)[C@@H]1NC(=O)[C@H]([C@@H](C)CC)NC(=O)[C@@H](CC(C)C)NC(=O)[C@H](Cc2ccccc2)NC(=O)[C@H](Cc2ccccc2)NC(=O)[C@@H]2CCCN2C(=O)[C@@H]2CCCN2C(=O)[C@H](C(C)C)NC(=O)[C@H](CC(C)C)NC1=O` (HELM PEPTIDE1{F.F.[dL].I.I.L.V.P.P}$PEPTIDE1,PEPTIDE1,1:R1-9:R2$$$V2.0), the activation (HDL uptake increase) was 5.97% (inactive).
Same read-out and setting: the result for `N#C/C(=C/c1cn(-c2ccccc2)nc1-c1cccc(OCc2ccccc2)c1)C(=O)NCCCn1ccnc1` reads 12.2% (inactive); that for `Nc1nnc(SCC(=O)NN2C(=O)NC3(CCCCC3)C2=O)s1`, -7.59% (inactive); that for `CCC(C)[C@@H](C(=O)NCC1CCC(C(=O)O)CC1)n1nnc2ccccc2c1=O` (stereo not given in full), -5.54% (inactive).
Still for that read-out and setting: under `COc1ccccc1N(CC(=O)Nc1cc(C)on1)S(=O)(=O)c1cccc(C(F)(F)F)c1` stands 1.11% (inactive); under `CCn1nnnc1-c1ccc(OC)c(S(=O)(=O)Nc2ccc(C)c(C)c2)c1`, -11.8% (inactive); under `CCOC(=O)c1csc(NC(=O)CN2CCN(C)CC2)n1`, 10.4% (inactive).
Same read-out and setting: under `O=C1C2C(c3ccccc3)CC=CC2[C@H](c2ccc(C(F)(F)F)cc2)N1Cc1ccccc1` (stereo not given in full) stands -16.7% (inactive).
Turning to `O=C(COC(=O)c1cccs1)Nc1cccc(Cl)c1`, the activation (HDL uptake increase) is -3.43% (inactive).
As for `CCN1C(=O)C2C(c3cccc(F)c3)NC(CC)(C(=O)OC)C2C1=O` (stereo not given), the activation (HDL uptake increase) is -4.79% (inactive).
Still for that read-out and setting: under `Nc1nc(SCC(=O)OCc2ccccc2)[nH]c(=O)c1NC(=O)c1ccco1` stands 4.16% (inactive); under `CN1CCN(C(=O)c2ccccc2NC(=O)c2ccccc2Br)CC1`, -7.48% (inactive); under `O=C(Nc1cccc(S(=O)(=O)NC2=NCCC2)c1)c1ccc(F)cc1F`, -14.5% (inactive).
